Assay results: US20050004225A1, “Oxidoreductase inhibitors and methods of screening and using thereof” (priority 2003, published 2005)
Read-outs that look alike come from different tables or passages of the source.

Columns and labels:
[1] = molecular target: T1, rat lens aldose reductase (Rattus norvegicus, UniProt P07943); details: cited from earlier work
T1 construct: host or cells: rat lens (as named)

human aldose reductase = molecular target: T2, human aldose reductase (Homo sapiens, UniProt P15121); assay: Inhibition of recombinant human aldose reductase, DL-glyceraldehyde reduction, NADPH at 340 nm; assay type: biochemical
T2 construct: His-tag (cleaved yes); made in house; host or cells: E. coli BL21
Procedure: DL Glyceraldehyde, NADPH, and Bezafibrate (2-[4-[2-(4-chlorobenzamiso)ethyl]phenoxy]-2-methyl-propionic acid) were purchased from Sigma-Aldrich. All other chemicals used were of the highest purity available.
Human aldose reductase was recombinantly expressed in E. coli BL21, purified, and used for testing the efficacy of Bezafibrate in regulating aldehyde reduction reaction. […] Over night grown culture was inoculated (25 ml/l) into four 3 l flasks each containing 11 LB supplemented with ampicillin (50 μg/ml) at 37° C. with shaking (250 rpm) for 3 to 4 h until an attenuance (A600) of ˜0.7. Isopropyl β-D-thiogalactoside (IPTG, 1 mM) was added to the culture and was further incubated for 3 h to induce the expression of human aldose reductase gene. […] Cell pellets were resuspended in 80 ml of Talon extraction/wash buffer, (pH 7.9, Clonetech), and lysed by sonication with ten pulses (30 s each) and centrifuged at 12 000 g. […] The slurry was then transferred into a column allowing the matrix to pack and the supernatant to pass through at a flow rate of […]. The column was washed with 50 ml of Talon extraction/wash buffer, and the enzyme was eluted with 50 ml of Talon elution buffer. The eluted protein was dialyzed overnight using Spectra/Por 5-8 kDa MWCO at 4° C. in 50 mM sodium phosphate buffer (pH 7.0) containing 1 mM 2-mercaptoethanol. His-tag from the dialyzed protein was removed using thrombin cleavage kit (Novagen) by adding 1 μl of thrombin to 4 mg of protein and incubating overnight at room temperature. The purity of the protein at each stage of purification was assessed by SDS PAGE, and staining the gels with Coomassie Blue.
Activity with various concentrations of DL glyceraldehyde in the absence and, in the presence of various concentrations of Bezafibrate was determined by monitoring the change in NADPH concentration at room temperature 28±2° C. in a Beckman DU600 model spectrophotometer by measuring the absorbance at 340 nm, in 0.01 M sodium phosphate buffer (pH 6.2). Kinetic parameters were obtained from initial-rate activity measurements, with substrate concentrations of 0.05 mM to 10 mM. Each individual rate measurement was done in duplicate. At least three independent determinations were performed for each kinetic constant. Values were calculated using Sigmaplot Ver 8.0 (SPSS Inc.) using a non-linear Marquardt's regression algorithm that computes the coefficients (parameters) of the independent variable(s) that give the “best fit” between the equation and the data. Inhibition-constant (Ki) and, the IC50 values for bezofibrate was calculated from the secondary plot of slope values from the double-reciprocal plot versus inhibitor concentration and from the plot of rate of reaction versus inhibitor concentration respectively.
The initial rates in the presence of Bezafibrate were analyzed by using equation 1: v=Vmax/((1+Km/S)*(1+I/Ki)/(1+I*beta/Ki)) (1) where, v=rate of reaction, Vmax=maximum initial velocity for the uninhibited reaction, Km=Michaelis constant in the absence of inhibitor, Ki=inhibition constant and beta=the rate constant when enzyme substrate complex breaks down to Enzyme and Product.

[2] = tested on: B16 melanoma-induced cachexia; details: cited from earlier work; for B16 melanoma-induced cachexia: mice
[3] = tested on: HeLa cervical carcinoma cells; details: cited from earlier work
COS-7 cells [4] = assay: Cellular metabolism of adenine propenal in COS-7 cells (HPLC, ESI+/MS); assay type: cell-based; details: 10 μM adenine propenal; for reduction of the glutathione conjugate of adenine propenal in the presence of AR inhibitor: COS-7 cells
Procedure: (§1) The cellular metabolism of base propenals was examined in isolated rabbit cardiac myocytes and COS-7 cells. The myocytes from rabbit ventricle were isolated as described in (46) and the COS-7 cells were obtained from ATCC. For metabolic studies, the cells were incubated with 10 μM of adenine propenal in Hepes-Ringer's buffer, pH 7.4. After 30 min of incubation, the medium was removed, and the adenine propenal and metabolites in the medium were separated by HPLC. […] To establish the structure of the glutathione conjugate peak I of the metabolites was injected into ESI^+/MS.
(§2) To probe the role of AR further, whether upregulation of AR would enhance the reductive metabolism of adenine propenal was examined. To enhance the expression of AR, the COS-7 cells were transfected with AR cDNA using lipofectamine.
To examine changes in metabolism, the cells transfected with AR cDNA and the empty vector were incubated with 10 μM adenine propenal as described before. After 30 min of incubation, the medium was collected and separated by HPLC.

[5] = tested on: isolated rabbit cardiac myocytes; assay: Cellular metabolism of adenine propenal in isolated cardiac myocytes (HPLC, ESI+/MS); assay type: cell-based; details: 10 μM adenine propenal
Procedure: as §1, §2

COS-7 cells [6] = assay: Toxicity of adenine propenal to COS-7 cells, MTT assay; assay type: cell-based; details: 100 μM adenine propenal, pre-incubated with 100 μM sorbinil
hepatoma cells = details: in the presence of 3-deoxyglucosone and glyceraldehydes; cited from earlier work
interleukin-1 (IL-1) = details: mice; cited from earlier work
human monocytes = human monocytes stimulated by LPS in vitro; cited from earlier work
[7] = tested on: murine adenocarcinoma colon26-induced cachexia; details: cited from earlier work
rat aldose reductase = rat aldose reductase (Rattus norvegicus, UniProt P07943); details: cited from earlier work
[8] = reduction of glyceraldehyde, read-out: Ki value
[9] = saturating substrate (10 mM DL-glyceraldehyde), read-out: IC50 value
[10] = Table I, recombinant human AR, reduction of DL-glyceraldehyde, read-out: K1

## C=CCc1ccc(O)c(OC)c1 [eugenol]
[1]
  inhibition against rat AR: weak inhibition

## N#CC(=Cc1ccc(O)cc1)C(=O)O [α-cyano-4-hydroxycinnamic acid]
Human aldose reductase
  IC50: 0.08 ± 0.005 µM
  Ki: 0.085 µM
Human aldose reductase; recombinant hAR, Lineweaver-Burk plot
  inhibition pattern with respect to reduction of glyceraldehyde, forward direction: partial noncompetitive inhibition pattern

## CC(C)(Oc1ccc(Cl)cc1)C(=O)O [2-4-Chlorophenoxy clofibric acid]
Human aldose reductase
  inhibitory effect on AR activity (in words): inhibitory effect
Human aldose reductase; [8]
  Ki: 1.04 ± 0.047 µM
Human aldose reductase; [9]
  IC50: 1.2 ± 0.1 µM

## CC(=O)[C@]1(O)Cc2c(O)c3c(c(O)c2[C@@H](O[C@H]2C[C@H](N)[C@H](O)[C@H](C)O2)C1)C(=O)c1ccccc1C3=O [Idamycin]
Human aldose reductase
  inhibitory effect on AR activity (in words): inhibitory effects
Human aldose reductase; [10]
  Ki: 20.5 ± 1.5 µM
Human aldose reductase; [9]
  IC50: 5.6 µM

## Cc1ccc(C)c(OCCCC(C)(C)C(=O)O)c1 [Gemfibrozil]
Human aldose reductase
  inhibitory effect on AR activity (in words): inhibitory effect
Human aldose reductase; Table I, recombinant human AR, reduction of DL-glyceraldehyde, read-out: IC50
  IC50: 6.5 ± 0.02 µM
Human aldose reductase; [10]
  Ki: 3.5 ± 0.79 µM
Human aldose reductase; [8]
  Ki: 2.74 ± 0.072 µM
Human aldose reductase; [9]
  IC50: 3 ± 0.2 µM

## O=C(O)Cc1nn(Cc2nc3cc(C(F)(F)F)ccc3s2)c(=O)c2ccccc12 [Zopolrestat]
Human aldose reductase
  inhibitory effect on AR activity (in words): inhibitory effects

## CCOP(=O)(Cc1ccc(C(=O)Nc2ccc(Br)cc2C#N)cc1)OCC [NO-1886]
[2]; mice after intraperitoneal inoculation of B16
  weight of epididymal fat and whole body lipid: ameliorated
[2]
  B16 melanoma-induced cachexia: alleviated

## O=C(O)/C=C/c1ccccc1 [trans-cinnamic acid]
[1]
  inhibition against rat AR: weak inhibition

## N#CC(=C(/N)Sc1ccccc1N)/C(C#N)=C(\N)Sc1ccccc1N [U0126]
[3]; inhibition of ERK activation by MEK inhibitor
  EBPC-mediated enhancement of cell death: reversed

## COc1cccc2c1C(=O)c1c(O)c3c(c(O)c1C2=O)C[C@@](O)(C(=O)CO)C[C@@H]3O[C@H]1C[C@H](N)[C@H](O)[C@H](C)O1 [Doxorubicin]
Human aldose reductase
  IC50: 0.2 µM
  Ki: 0.24 ± 0.02 µM

## O=[N+]([O-])NC1=NCCN1Cc1ccc(Cl)nc1 [Imidcloprid, N-(6-chloropyridin-3-ylmethyl)-2-nitroiminoimidazolidine]
Human aldose reductase; IC50 value, saturating substrate (10 mM DL-glyceraldehyde)
  IC50: 1.5 µM
Human aldose reductase; Ki value, reduction of glyceraldehyde
  Ki: 12.6 µM

## O=CC=Cc1ccccc1 [cinnamaldehyde]
[1]
  inhibition against rat AR: high potency

## COc1cccc2c1C(=O)c1c(O)c3c(c(O)c1C2=O)C[C@@](O)(C(=O)CO)C[C@@H]3O[C@H]1C[C@H](N)[C@@H](O)[C@H](C)O1 [Epirubicin]
Human aldose reductase
  IC50: 5.5 µM
  Ki: 77.6 µM

## O=C1NC(=O)[C@@]2(CCOc3ccc(F)cc32)N1 [Sorbinil]
COS-7 cells [4]; AR-transfected COS-7 cells, 30 min, in the presence of sorbinil
  adenine propenol peak (22 min) in AR cDNA-transfected cells: completely abolished
COS-7 cells [4]
  reduction of the glutathione conjugate of adenine propenal in the presence of AR inhibitor: significantly prevented
[5]
  reduction of the glutathione conjugate of adenine propenal in the presence of AR inhibitor: significantly prevented
COS-7 cells [6]
  half life of cell viability after pre-incubation with AR inhibitor: 6.1 ± 0.5 h
Human aldose reductase
  inhibitory effect on AR activity (in words): inhibitory effects

## COc1ccc2c(C(=S)N(C)CC(=O)O)cccc2c1C(F)(F)F [tolrestat]
COS-7 cells [4]
  reduction of the glutathione conjugate of adenine propenal in the presence of AR inhibitor: significantly prevented
[5]
  reduction of the glutathione conjugate of adenine propenal in the presence of AR inhibitor: significantly prevented

## OC/C=C/c1ccccc1 [ainnnamyl alcohol]
[1]
  inhibition against rat AR: weak inhibition

## CC(C)(Oc1ccc(CCNC(=O)c2ccc(Cl)cc2)cc1)C(=O)O [Bezafibrate, 2-[4-[2-(4-chlorobenzamiso)ethyl]phenoxy]-2-methyl-propionic acid]
Human aldose reductase; apparent noncompetitive inhibition constant, read-out: Ki value, unit inferred
  Ki: 2 µM
Human aldose reductase; [9]
  IC50: 3.8 µM

## CC(/C=C1\SC(=S)N(CC(=O)O)C1=O)=C\c1ccccc1 [ONO-2235]
Hepatoma cells
  viability of hepatoma cells: decreased

## O=C(O)Cc1nn(Cc2ccc(Br)cc2F)c(=O)c2ccccc12 [ponalrestat]
interleukin-1 (IL-1)
  LPS-induced increase of IL-1 in the blood: suppressed
Human monocytes
  production of interleukin-1 (IL-1): inhibited
[2]
  B16 melanoma-induced cachexia: inhibited
[7]; colon26 bearing mice
  survival: significantly prolonged
  weight of body mass, epididymal fat, gastrocnemius muscle and carcass: attenuated the reduction
[7]; mice bearing colon26 subcutaneously
  tumor growth: slightly stimulated

## CCOC(=O)C1=C(O)C(=O)N(Cc2ccccc2)C1 [EBPC, ethyl 1-benzyl-3-hydroxy-2(5H)-oxopyrrole-4-carboxylate]
Rat aldose reductase
  inhibition of rat aldose reductase: inhibits
[3]; 30 or 50 μM EBPC alone
  cell death or proliferation, EBPC alone: no effect
[3]; 24 h, doxorubicin or 30 μM cisplatin with 30 or 50 μM EBPC, vs untreated control
  percentage of dead cells: significant increase
[3]; EBPC with chemotherapeutic drugs vs chemotherapeutic drugs
  extracellular signal-regulated kinase (ERK) activity: increased
[3]; HeLa cells, combination with EBPC
  cytotoxic effects of doxorubicin and cisplatin: enhances

## COc1cccc2c1C(=O)c1c(O)c3c(c(O)c1C2=O)C[C@@](O)(C(C)=O)C[C@@H]3O[C@H]1C[C@H](N)[C@H](O)[C@H](C)O1 [Daunorubicin]
Human aldose reductase
  inhibitory effect on AR activity (in words): inhibitory effects
Human aldose reductase; [10]
  Ki: 21.4 ± 7.67 µM
Human aldose reductase; [9]
  IC50: 5 µM
